US11591596B2, “Compounds and compositions including phosphorothioated oligodeoxynucleotide, and methods of use thereof” (City of Hope, priority 2015, dated 2023)

Key:
[1] = system: Human immune cells (CD14+ monocytes, CD1c+ mDCs, CD3+ T cells and CD19+ B cells); assay: Uptake of Cy3-labeled CpG-anti-miRs by human immune cells, flow cytometry; format: cell-based; details: for intracellular uptake: Cy3-labeled, human immune cells
Method: FIGS. 16A-16B. Cell-selective uptake of CpG-anti-miR146a. […] CpG-anti-miR146a was Cy3-labeled to detect the intracellular uptake by target cells using flow cytometry. FIG. 16A) Human immune cells were incubated with indicated concentrations of CpG-anti-miR146acY3 for 1 hr. The uptake by CD14+ monocytes, CD1c+ mDCs, CD3+ T cells and CD19+ B cells was measured using flow cytometry.
where * indicates a phosphorothioate linkage, mN indicates a 2′OMe modified nucleotide, and x indicates a linker described herein. CpG-anti-miRNAs were Cy3-labeled to detect the intracellular uptake by target cells using flow cytometry. […] Treatment of these compounds reduces the corresponding miR expression in human and mouse myeloid cells (FIGS. 17A-17F, 18A-18F, 19A-19H).

[2] = system: miR-125b; assay: Mature miR-125b expression by TAQMAN qPCR; format: cell-based, human and mouse; details: 100 nM, 18 h; various cell models
Method: FIGS. 18A-18F. Inhibitory effects of CpG-anti-miR125b. […] RAW264.7 (FIG. 18A), DC2.4 (FIG. 18B), and MV4-11 (FIG. 18C) cells were incubated with 100 nM CpG-anti-miR125b or CpG-scrambled RNA (negative control) for 18 h and then treated with 1 vg/mILPS for 4 h. Human AML cells—KG1a (FIG. 18D), MOLM13 (FIG. 18E), and MOLM14 (FIG. 18F)—were incubated with 100 nM CpG-anti-miR125b or control CpG-scrambled RNA for 18 h. Mature miR-125b expression was measured using TAQMAN® qPCR assay and normalized to snoRNA234 levels. miR-125b expression level in untreated samples was set as 1.0. Data are shown as means±SEM (n=3). *P<0.05.

[3] = system: IRF4 (miR125b target); assay: Immunoblot of downstream target IRF4; format: cell-based, mouse or human; details: 250 nM or 500 nM, 48 h; RAW264.7 or MV4-11 cells
Method: (§1) FIGS. 20A-20D. Effects of CpG-anti-miRNAs on downstream targets. […] Mouse RAW264.7 or human MV4-11 cells were incubated with 250 nM or 500 nM of CpG-anti-miR155, CpG-anti-miR125b, or CpG-anti-miR146a, or 500 nM of CpG-scramble for 48 h, then the cell lysates were collected and electrophoresed and immunoblotted by antibodies against SHIP1 (miR155 target) (FIG. 20A), IRF4 (miR125b target) (FIG. 20B), or IRAK1 (miR146a target) (FIG. 20C). The band intensities were normalized against β-actin and quantified. Fold induction over the control protein levels are indicated below the blot. FIG. 20D) MV4-11 cells were incubated with 500 nM of CpG-anti-miR155, CpG-antimiR125b, CpG-anti-miR146a, or CpG-scramble for 24 h, then cell lysates were collected and electrophoresed and immunoblotted to detect activated caspase 3 indicating induction of apoptosis.
(§2) Mouse RAW264.7 or human MV4-11 cells were incubated with 250 nM or 500 nM of CpGanti-miR155, CpG-anti-miR125b, or CpG-anti-miR146a, or 500 nM of CpG-scramble for 48 h, then the cell lysates were collected and electrophoresed and immunoblotted by antibodies against SHIP1 (miR155 target) (FIG. 20A), IRF4 (miR125b target) (FIG. 20B), or IRAK1 (miR146a target) (FIG. 20C). The band intensities were normalized against β-actin and quantified. Fold induction over the control protein levels are indicated below the blot. […]

[4] = system: miR-126; assay: miR-126 expression in K562 and MV4-11 cells with miR-126 inhibitors or mimics; format: cell-based; details: 500 nM, 24 hours
Method: FIGS. 26A-26E. Effective knockdown of miR-126 with miR-126 inhibitors conjugated with CpG, GpC and PS, and effective over-expression with miR-126 mimics in K562 and MV4-11 cells. K562 and MV4-11 cells were treated with miR-126 inhibitors conjugated with CpG, GpC, PS (FIGS. 26A-26B) or miR-126 mimics (615, 616 and 617) (FIGS. 26C-26D) (500 nM) for 24 hours, and miR-126 expression was measured in these cells. […] FIG. 26E) Tabulation of sequence set forth herein.
Effective knockdown of miR-126 with miR-126 inhibitors conjugated with CpG, GpC and PS, and effective over-expression with miR-126 mimics in K562 and MV4-11 cells. K562 and MV4-11 cells were treated with miR-126 inhibitors conjugated with CpG, GpC, PS (FIGS. 26A-26B) or miR-126 mimics (615, 616 and 617) (FIGS. 26C-26D) (500 nM) for 24 hours, and miR-126 expression was measured in these cells.

[5] = system: miR-146a; assay: Mature miR-146a expression by TAQMAN qPCR; format: cell-based, human and mouse; details: 100 nM
Method: FIGS. 19A-19H. Inhibitory effects of CpG-anti-miR146a. […] Mouse RAW264.7 (macrophages) (FIG. 19A) and DC2.4 (dendritic cells) (FIG. 19B) as well as human MV4-11 (FIG. 19C) and KG1a AML (FIG. 19D) cells were incubated with 100 nM CpG-anti-miR146a or CpG-scrambled RNA (negative control) for 18 h and then treated with 1 vg/ml LPS for 4 h. KG1a, MOLM13 (FIG. 19E), and MOLM14 (FIG. 19F) cells were incubated with 100 nM CpG-anti-miR146a or CpG-scrambled RNA for 18 h. FIGS. 19G-19H) Mouse CMM AML cells (FIG. 19G) and A20 lymphoma cells (FIG. 19H) were incubated with 100 nM CpG-miR146a mimic for 18 h. Mature miR-146a expression was measured using TAQMAN® qPCR assay and normalized to snoRNA234 levels. miR-146a expression level in untreated samples was set as 1.0. Data are shown as means±SEM (n=3). *P<0.05.
(§3) FIGS. 21A-21H. Comparing the inhibition effects of CpG-anti-miR and GpC-anti-miR. […] The cells were incubated with 100 nM CpG-anti-miRs or GpC-anti-miRs for 18 hrs. […] RAW264.7 (FIGS. 21E,21G) or A20 cells (FIGS. 21F,21H) were incubated with 500 nM of CpG-anti-miR155, GpC-anti-miR155, or CpG-anti-miR146a, GpC-anti-miR146a for 48 hrs, then the cell lysates were collected and immunoblotted using antibodies against SHIP1 (miR155 target) or IRAK1 (miR146a target)
The cells were incubated with 100 nM CpG-anti-miRs or GpC-anti-miRs for 18 hrs. […] RAW264.7 (FIGS. 21E,21G) or A20 cells (FIGS. 21F,21H) were incubated with 500 nM of CpG-anti-miR155, GpC-anti-miR155, or CpG-anti-miR146a, GpC-anti-miR146a for 48 hrs, then the cell lysates were collected and immunoblotted using antibodies against SHIP1 (miR155 target) or IRAK1 (miR146a target).

[6] = system: IRAK1 (miR146a target); assay: Immunoblot of downstream target IRAK1; format: cell-based, mouse or human; details: for IRAK1 (downstream target regulation): 500 nM, 48 hrs, RAW264.7 or A20 cells
Method: as §1, §3
Mouse RAW264.7 or human MV4-11 cells were incubated with 250 nM or 500 nM of CpGanti-miR155, CpG-anti-miR125b, or CpG-anti-miR146a, or 500 nM of CpG-scramble for 48 h, then the cell lysates were collected and electrophoresed and immunoblotted by antibodies against SHIP1 (miR155 target) (FIG. 20A), IRF4 (miR125b target) (FIG. 20B), or IRAK1 (miR146a target) (FIG. 20C). The band intensities were normalized against β-actin and quantified. Fold induction over the control protein levels are indicated below the blot. FIG. 20D) MV4-11 cells were incubated with 500 nM of CpG-anti-miR155, CpG-antimiR125b, CpG-anti-miR146a, or CpG-scramble for 24 h, then cell lysates were collected and electrophoresed and immunoblotted to detect activated caspase 3 indicating induction of apoptosis. […]

[7] = system: miR-155; assay: Mature miR-155 expression by TAQMAN qPCR; format: cell-based, human and mouse; details: 100 nM
Method: FIGS. 17A-17F. Inhibitory effects of CpG-anti-miR155. […] Mouse RAW264.7 (macrophages) (FIG. 17A) and DC2.4 (dendritic cells) (FIG. 17B) as well as human MV4-11 AML cells (FIG. 17C) were incubated with 100 nM CpG-anti-miR155 or CpG-scrambled RNA (negative control) for 18 h and then treated with 1 vg/ml LPS for 4 h. KG1a (FIG. 17D), MOLM13 (FIG. 17E), and MOLM14 (FIG. 17F) cells were incubated with 100 nM CpG-anti-miR155 or CpG-scrambled RNA for 18 h. Mature miR-155 expression was measured using TAQMAN® qPCR assay and normalized to snoRNA234 levels. miR-155 expression level in untreated samples was set as 1.0. Data are shown as means±SEM (n=3). *P<0.05.
as §3
The cells were incubated with 100 nM CpG-anti-miRs or GpC-anti-miRs for 18 hrs. […]

[8] = system: SHIP1 (miR155 target); assay: Immunoblot of downstream target SHIP1; format: cell-based, mouse or human
Method: as §1
FIGS. 21A-21H. Comparing the inhibition effects of CpG-anti-miR and GpC-anti-miR. […]
as §2, with “quantified.” for “quantified. Fold induction over the control protein levels are indicated below the blot.”

[9] = system: human AML cells KG1a, MOLM13, and MOLM14; assay: Uptake of Cy3-labeled CpG-anti-miR146a by cultured AML cells; format: cell-based; details: even at low concentrations
[10] = 18 h, human and mouse myeloid cells
[11] = 250 nM or 500 nM, 48 h, RAW264.7 or MV4-11 cells

5′ G*G*T GCA TCG ATG CAGG*G*G* G*G xxxxx mU*mC*mA*mC*mA*mA*mG*mU*mU*mA*mG*mG*mG*mU*mC*mU*mC*mA*mG*mG*mG*mA 3′ [CpG-anti-miR125b]
intracellular uptake [1]: uptake of these compounds was observed | miR-125b expression [2]: reduces miR-125b expression | IRF4 protein level (downstream target regulation) [3]: regulate downstream targets

5′ G*GT. GCA TGC ATG CAG G*G*G*G*G (SEQ ID NO: 2) xxxxx mCmGmC mAmUmU mAmUmU mAmCmU mCmAmC mGmGmU mAmCmG mA (SEQ ID NO: 17) 3′ [GpC]
miR-126 expression (knockdown by inhibitors) [4]: succeeds in blocking miR126

G*G*T GCA TGC ATG CAGG*G*G* G*G (SEQ ID NO: 2) xxxxx mC*mC*mC*mA*mT*mG*mG*mA*mA*mT*mT*mC*mA*mG*mT*mT*mC*mT*mC*mA (SEQ ID NO: 36) 3′ [GpC-anti-miR146a]
miR-146a expression ([5]; 18 hrs, RAW264.7 and A20 cells): reduces miR155 or miR-146a expression | IRAK1 (downstream target regulation) [6]: regulates downstream targets

5′ G*G*T*G*C*A*T*C*G*A*T*G*C*A*G*G*G*G*G*G (SEQ ID NO: 3) xxxxx mC*mG*mC* mA*mU*mU* mA*mU*mU* mA*mC*mU* mC*mA*mC* mG*mG*mU* mA*mC*mG*mA (SEQ ID NO: 48) 3′ [completely PS-modified oligo]
miR-126 expression (knockdown by inhibitors) [4]: succeeds in blocking miR126

5′G*G*T GCA TCG ATG CAGG*G*G* G*G xxxxx mA*mC*mC*mC*mC*mU*mA*mU*mC*mA*mC*mA*mA*mU*mU*mA*mG*mC*mA*mU*mU*mA*mA 3′ [CpG-anti-miR155]
intracellular uptake [1]: uptake of these compounds was observed | miR-155 expression [7, 10]: reduces miR-155 expression | miR155 expression ([7]; 18 hrs, RAW264.7 and A20 cells): reduces miR155 or miR-146a expression | SHIP1 protein level [8, 11]: upregulated | SHIP1 (downstream target regulation) ([8]; 500 nM, 48 hrs, RAW264.7 or A20 cells): regulates downstream targets

5′ G*G*T GCA TCG ATG CAGG*G*G* G*G xxxxx mC*mC*mC*mA*mU*mG*mG*mA*mA*mU*mU*mC*mA*mG*mU*mU*mC*mU*mC*mA 3′ [CpG-anti-miR146a]
intracellular uptake [1]: uptake of these compounds was observed | internalization by target immune and leukemic cells ([1]; without any transfection reagents): Dose and time dependent internalization | miR-146a expression [5, 10]: reduces miR-146a expression | miR-146a expression ([5]; 18 hrs, RAW264.7 and A20 cells): reduces miR155 or miR-146a expression | internalization by cultured AML cells [9]: rapidly internalize | IRAK1 protein level [6, 11]: upregulated | IRAK1 (downstream target regulation) [6]: regulates downstream targets
